This is an account of results in ChEMBL document CHEMBL3988442, “University of Dundee, Small-Polar-MMV Screening Library” (2021).

This assay addresses Lysine--tRNA ligase (Plasmodium falciparum (isolate 3D7), UniProt Q8IDJ8). Nature of the assay: Pf-KRS-1 (Lysyl-RNA Synthetase-1, KRS-1, cytosolic KRS) from Plasmodium falciparum. Inhibitor assay, 384 well plate, luminescence read. The class given is functional.

Sequence of Lysine--tRNA ligase (Q8IDJ8 whole entry): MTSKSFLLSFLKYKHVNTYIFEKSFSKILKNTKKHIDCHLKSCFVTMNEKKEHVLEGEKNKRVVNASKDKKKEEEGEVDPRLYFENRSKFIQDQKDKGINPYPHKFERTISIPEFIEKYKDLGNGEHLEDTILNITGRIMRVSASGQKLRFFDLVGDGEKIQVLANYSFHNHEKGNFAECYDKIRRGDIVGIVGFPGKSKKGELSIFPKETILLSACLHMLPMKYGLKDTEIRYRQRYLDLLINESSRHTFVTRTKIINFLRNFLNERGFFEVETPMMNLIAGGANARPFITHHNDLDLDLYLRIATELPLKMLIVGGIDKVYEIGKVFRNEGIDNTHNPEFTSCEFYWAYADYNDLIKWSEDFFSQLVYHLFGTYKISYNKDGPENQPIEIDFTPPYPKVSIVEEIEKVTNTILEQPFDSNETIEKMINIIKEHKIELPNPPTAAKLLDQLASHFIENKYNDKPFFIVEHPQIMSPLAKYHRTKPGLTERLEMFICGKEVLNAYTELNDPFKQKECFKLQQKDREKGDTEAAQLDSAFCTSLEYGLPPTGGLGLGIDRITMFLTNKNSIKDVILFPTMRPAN

On to `O=C(NCCc1ccco1)Nc1cc(C(F)(F)F)c[nH]c1=O`, for which the IC50 (commonly the concentration that gives 50% inhibition) is above 50.1 µM.

For `O=C(c1ccc2c(c1)CCCC2)N1CCCC(n2cncn2)C1` (stereo not given), the IC50 is above 50.1 µM.

In turn, `O=C(NCc1csc(Br)c1)c1cnccn1` showed an IC50 above 50.1 µM.

Compound `CCc1n[nH]c(C2CN(Cc3nc(C4CC4)no3)CCO2)n1` (stereo not given) had an IC50 above 50.1 µM.

As for `c1cnnc(N2CCCC(NCc3ccncc3)C2)c1` (stereo not given), the IC50 is above 50.1 µM.

`COc1c(C)cnc(CN(C)C(=O)c2cccnc2N(C)C)c1C` showed an IC50 above 50.1 µM.

For the compound `Cc1ccc(CN2CCCN(Cc3cscn3)CC2)cc1`, the IC50 is above 50.1 µM.

In turn, `COc1cccc(COCC(=O)N2CCCC(n3cccn3)C2)c1` (stereo not given) gave a half-inhibitory concentration (IC50) above 50.1 µM.

As for `O=C(COCCc1ccccc1)N1CCCC(n2cccn2)C1` (stereo not given), the IC50 is above 50.1 µM.

Compound `N#CCc1ccc(OCC(=O)N2CCCC(n3cccn3)C2)cc1` (stereo not given) had an IC50 above 50.1 µM.

Turning to `Cc1cnn(CC2CCCN2C(=O)c2cccc3c2OCO3)c1` (stereo not given), the IC50 was above 50.1 µM.

In turn, `Cc1cccc2c1CCN(c1cc(N3CCCC3CO)ncn1)C2` (stereo not given) had an IC50 above 50.1 µM.

In turn, `FC(F)(F)c1ccc(CN2CCN(Cc3cscn3)CC2)cc1` gave an IC50 above 50.1 µM.

On to `COc1ccc(OC)c(C(=O)N(C)Cc2ncc(C)c(OC)c2C)c1`, for which the IC50 is above 50.1 µM.

For the compound `Cc1ccn2ncc(C(=O)N3CCCC(n4nc(C)nc4C)C3)c2n1` (stereo not given), the 50% inhibitory concentration (IC50) is above 50.1 µM.

Turning to `COc1c(C)cnc(CN(C)C(=O)c2ccccc2F)c1C`, the IC50 was above 50.1 µM.

For `CC(NC(=O)NCCOc1ccc(Cl)cc1)c1nncn1C` (stereo not given), the IC50 is above 50.1 µM.

`O=C(CCNC(=O)c1ccoc1)Nc1cccc(F)c1` showed an IC50 above 50.1 µM.

`O=C(CCNC(=O)c1ccoc1)Nc1cc(F)ccc1F` gave a 50% inhibitory concentration (IC50) above 50.1 µM.

In the case of `O=C(CCNC(=O)c1ccoc1)Nc1cc(F)cc(F)c1`, the IC50 was above 50.1 µM.

For the compound `COc1ccc(NC(=O)N2CCCC2c2ccncc2)cn1` (stereo not given), the IC50 is above 50.1 µM.

Compound `COc1ccc(C2CCCN2C(=O)Nc2ccc(OC)nc2)cc1` (stereo not given) gave an IC50 above 50.1 µM.

Compound `Cn1cnnc1C1CCCN(C(=O)c2ccc3c(c2)OCCO3)C1` (stereo not given) showed an IC50 above 50.1 µM.

The compound `COCCOc1ccc(NC(=O)N2CCCC2c2ccsc2)cn1` (stereo not given) had an IC50 above 50.1 µM.

The compound `COc1ccc(CC(=O)N2CCCC(c3nncn3C)C2)cc1` (stereo not given) showed an IC50 above 50.1 µM.

Take `COCCOc1ccccc1C(=O)N(C)Cc1ncc(C)c(OC)c1C`: the IC50 was above 50.1 µM.

Regarding `COCCOc1ccc(NC(=O)N2CCCC2c2cccs2)cn1` (stereo not given), the IC50 is above 50.1 µM.

Turning to `COc1c(C)cnc(CN(C)C(=O)c2ccccc2O)c1C`, the IC50 is above 50.1 µM.

Compound `CC(NC(=O)NCCCOc1ccccc1F)c1nncn1C` (stereo not given) gave an IC50 above 50.1 µM.

Compound `N#Cc1cccc(CN2CCN(Cc3cscn3)CC2)c1` gave an IC50 above 50.1 µM.

In the case of `Cc1cccc(OCCCNC(=O)NC(C)c2nncn2C)c1` (stereo not given), the IC50 was above 50.1 µM.

In turn, `Fc1cccc(CN2CCN(Cc3cscn3)CC2)c1` had an IC50 above 50.1 µM.

For the compound `Cc1nnc(N2CCC(CCN(C)C)CC2)c(C#N)c1C`, the IC50 was above 50.1 µM.

Compound `Cc1ncc(CN2CCOC(CN(C)c3cccnn3)C2)s1` (stereo not given) had a 50% inhibitory concentration (IC50) above 50.1 µM.

On to `CSC(C)C(=O)NCc1ccc(-n2cncn2)nc1` (stereo not given), for which the IC50 is above 50.1 µM.

Compound `CCc1nnsc1C(=O)N1CCCN(Cc2ccccc2)CC1` showed a 50% inhibitory concentration (IC50) above 50.1 µM.

For the compound `CNS(=O)(=O)c1ccc(CNC(=O)NCC2CCC2)cc1`, the IC50 was above 50.1 µM.

`CCCOc1ccc(CNC(=O)N2CCC(C(N)=O)C2)cc1` (stereo not given) gave an IC50 above 50.1 µM.

In the case of `CS(=O)(=O)c1ccc(CNC(=O)N2CCC(C(N)=O)C2)cc1` (stereo not given), the IC50 was above 50.1 µM.

Take `CCn1ncc2c1CCCC2NCc1ccc(OC)c(C)c1` (stereo not given): the IC50 is above 50.1 µM.

`COc1cccc(-n2c(C)cc(C(=O)NS(C)(=O)=O)c2C)c1`: the IC50 is above 50.1 µM.

For the compound `CCOc1cccc2c1OCC(C(=O)NS(=O)(=O)Cc1ccccc1)=C2`, the concentration for half-maximal inhibition (IC50) is above 50.1 µM.

As for `O=C(c1cnc(-c2cccs2)s1)N1CCCC(n2cccn2)C1` (stereo not given), the IC50 was above 50.1 µM.

For `O=C(NCc1csc(Br)c1)c1ccncc1`, the IC50 was above 50.1 µM.

`c1cnc(N2CCCC(NCc3ccc(-n4ccnc4)cc3)C2)nc1` (stereo not given): the IC50 is above 50.1 µM.
